Reference: patent publication US20110021515A1, “DIHYROFUROPYRMINDINE COMPOUNDS” (TAKEDA PHARMACEUTICAL COMPANY LIMITED, priority 2009, published 2011)

Target: T1, human mTOR (Homo sapiens, UniProt P42345)
T1 construct: purchased Invitrogen
Test: Inhibition of mTOR (LanthaScreen TR-FRET, GFP-4E-BP1 substrate)
Type: biochemical
Conditions: purified mTor, GFP-4E-BP1 and ATP, 30 min at room temperature; read-out: pIC50 for inhibition of human mTOR in the assay of Example A (converted)
Experimental: Example A Inhibition of mTOR
Purified mTor are purchased from Invitrogen. mTor activity was determined using Invitrogen's LanthaScreen system. The inhibitory properties of compounds relative to mTor may be determined using a black 384-well-plate format in the following buffer 50 mM Hepes, 10 mM NaCl, 10 mM MgCl2, 0.2 mM EDTA, 0.01% Brij35, 2 mM DTT at pH7.3. The test compound is prepared in DMSO using 2 fold serial dilutions for 11 data points which are added to the buffer so that each dilution contains 3% DMSO.
An assay for mTor inhibition is as follows:
Combine in each well 2 μl of 1.2 μM GFP-4E-BP1 (Invitrogen) and 150 μM ATP (in buffer), 2 μl of diluted test compound (3% DMSO in buffer), and 2 μl of 6 nM mTor in buffer. The reaction mixture is then incubated at room temperature for 30 min, and quenched by adding 40 mM ETDA with 4 nM Tb-anti-p4E-BP1 [pThr46] antibody in TR-FRET dilution buffer (Invitrogen). The plate is kept at room temperature for 1 hour and then read using PheraStar (BMG labtech) LanthaScreen mode.
pIC50 values, the negative of the log of the IC50, are calculated by non-linear curve fitting of the compound concentrations and percent of inhibition to the standard pIC50 equation.

SMILES	IC50 [nM]
CNC(=O)Nc1ccc(-c2nc(N3CCOCC3)c3c(n2)C(C)(C)CO3)cc1 [Example 2, 1-(4-(7,7-dimethyl-4-morpholino-6,7-dihydrofuro[3,2-d]pyrimidin-2-yl)phenyl)-3-methylurea]	< 31.6
CNC(=O)Nc1ccc(-c2nc(N3CC4CCC(C3)O4)c3c(n2)C(C)(C)CO3)cc1 [Example 4, 1-(4-(4-(8-oxa-3-azabicyclo[3.2.1]octan-3-yl)-7,7-dimethyl-6,7-dihydrofuro[3,2-d]pyrimidin-2-yl)phenyl)-3-methylurea]	< 31.6
CNC(=O)Nc1ccc(-c2nc(N3CC4CCC(C3)O4)c3c(n2)C(C)(C)OC3)cc1 [Example 6, 1-(4-(4-(8-oxa-3-azabicyclo[3.2.1]octan-3-yl)-7,7-dimethyl-5,7-dihydrofuro[3,4-d]pyrimidin-2-yl)phenyl)-3-methylurea]	< 31.6
CNC(=O)Nc1ccc(-c2nc(N3CCOCC3)c3c(n2)C(C)(C)OC3)cc1 [Example 8, 1-(4-(7,7-dimethyl-4-morpholino-5,7-dihydrofuro[3,4-d]pyrimidin-2-yl)phenyl)-3-methylurea]	< 31.6
CCNC(=O)Nc1ccc(-c2nc(N3CC4CCC(C3)O4)c3c(n2)C(C)(C)OC3)cc1 [Example 9, 1-(4-(4-(8-oxa-3-azabicyclo[3.2.1]octan-3-yl)-7,7-dimethyl-5,7-dihydrofuro[3,4-d]pyrimidin-2-yl)phenyl)-3-ethylurea]	< 31.6
CCNC(=O)Nc1ccc(-c2nc(N3CCOCC3)c3c(n2)C(C)(C)OC3)cc1 [Example 10]	< 31.6
CC1(C)OCc2c(N3CCOCC3)nc(-c3ccc(NC(=O)NC4CC4)cc3)nc21 [Example 11, 1-cyclopropyl-3-(4-(7,7-dimethyl-4-morpholino-5,7-dihydrofuro[3,4-d]pyrimidin-2-yl)phenyl)urea]	< 31.6
CNC(=O)Nc1ccc(-c2nc(N3CC4CCC(C3)O4)c3c(n2)C(C)(O)OC3)cc1 (stereo not drawn) [Example 12, 1-(4-(4-(8-oxa-3-azabicyclo[3.2.1]octan-3-yl)-7-hydroxy-7-methyl-5,7-dihydrofuro[3,4-d]pyrimidin-2-yl)phenyl)-3-methylurea]	31.6 to 1000
CNC(=O)Nc1ccc(-c2nc(N3CC4CCC(C3)O4)c3c(n2)C2(CC2)OC3)cc1 [Example 13, 1-(4-(4′-(8-oxa-3-azabicyclo[3.2.1]octan-3-yl)-5′H-spiro[cyclopropane-1,7′-furo[3,4-d]pyrimidine]-2′-yl)phenyl)-3-methylurea]	< 31.6
CCNC(=O)Nc1ccc(-c2nc(N3CCOCC3)c3c(n2)C2(CC2)OC3)cc1 [Example 14, 1-ethyl-3-(4-(4′-morpholino-5′H-spiro[cyclopropane-1,7′-furo[3,4-d]pyrimidine]-2′-yl)phenyl)urea]	< 31.6
O=C(Nc1ccc(-c2nc(N3CCOCC3)c3c(n2)C2(CC2)OC3)cc1)NC1CC1 [Example 15, 1-cyclopropyl-3-(4-(4′-morpholino-5′H-spiro[cyclopropane-1,7′-furo[3,4-d]pyrimidine]-2′-yl)phenyl)urea]	< 31.6
CNC(=O)Nc1ccc(-c2nc(N3CCOCC3)c3c(n2)C2(CC2)OC3)cc1 [Example 16, 1-methyl-3-(4-(4′-morpholino-5′H-spiro[cyclopropane-1,7′-furo[3,4-d]pyrimidine]-2′-yl)phenyl)urea]	< 31.6
